Test results reported in ChEMBL document CHEMBL3882721, “2-phenyl benzimidazoles and imidazo-4,5|-pyridines as CDS1/CHK2-inhibitors and adjuvants to chemotherapy or radiation therapy in the treatment of cancer” (2007).
Active and inactive are the calls of the source. No cut-off for these calls is given here.

Tested on: spleen
Test: Cytoprotective activity against 137Cs gamma-radiation-induced apoptosis in C57/BL6 mouse spleen cells preincubated for 1 hr followed by irradiation measured after 6 to 24 hrs by annexin V/FITC-propidium iodide staining-based FACS analysis
Format: functional, cell-based

Row | SMILES | Activity
1 | NC(=O)c1ccc2[nH]c(-c3ccc(Sc4ccc(O)cc4)cc3)nc2c1 | Active
2 | NC(=O)c1ccc2[nH]c(-c3ccc(Oc4ccc(I)cc4)cc3)nc2c1 | Active
3 | Cc1ccc(Sc2ccc(-c3nc4cc(C(N)=O)ccc4[nH]3)cn2)cc1 | Active
4 | NC(=O)c1ccc2[nH]c(-c3ccc(Oc4ccc5c(c4)OCO5)cc3)nc2c1 | Active
5 | NC(=O)c1ccc2[nH]c(-c3ccc(Oc4ccc(Cl)cc4)cc3)nc2c1 | Active
6 | COc1cccc(Sc2ccc(-c3nc4cc(C(N)=O)ccc4[nH]3)cc2)c1 | Active
7 | NC(=O)c1ccc2[nH]c(-c3ccc(Oc4ccc5ccccc5c4)cc3)nc2c1 | Active
8 | COc1ccc(Sc2ccc(-c3nc4cc(C(N)=O)ccc4[nH]3)cc2)cc1 | Active
9 | NC(=O)c1ccc2[nH]c(-c3ccc(Oc4ccc(Br)c(O)c4)cc3)nc2c1 | Active
10 | NC(=O)c1ccc2[nH]c(-c3ccc(Oc4ccc(Br)cc4)cc3)nc2c1 | Active
11 | NC(=O)c1ccc2[nH]c(-c3ccc(Sc4ccc(F)c(Cl)c4)cc3)nc2c1 | Active
12 | NC(=O)c1ccc2[nH]c(-c3ccc(Sc4ccc(Cl)cc4)nc3)nc2c1 | Active
13 | COc1cc(Oc2ccc(-c3nc4cc(C(N)=O)ccc4[nH]3)cc2)ccc1Br | Active

Tested on: not listed separately
Test: Anticlonogenic activity against ionizing radiation/chemotherapeutic agent-treated clonogenic tumor cells (unknown origin) preincubated for 12 to 48 hrs followed by growth medium addition without compound measured after 7 to 14 days by crystal violet staining-based assay relative to control
Format: functional

Row | SMILES | Activity
14 | NC(=O)c1ccc2[nH]c(-c3ccc(Oc4ccc(Cl)cc4)cc3)nc2c1 | Active
